Data as given in paper PMC6133161, “Thiazoles with cyclopropyl fragment as antifungal, anticonvulsant, and anti-Toxoplasma gondii agents: synthesis, toxicity evaluation, and molecular docking study” (Medicinal Chemistry Research, 2018).
≈ marks a conversion by molar mass, not a printed value.

Assays:
[1] = system: Toxoplasma gondii RH strain; test: [3H]-uracil incorporation assay in VERO host cells; conditions: Toxoplasma gondii, Vero
C. sake = test: Broth microdilution MIC/MFC, clinical isolate; type: cell-based; conditions: Fermentozyma sake, C. sake clinical strain; for MFC: read-out: MFC; for MIC: read-out: MIC
Text: (§1) In the study of antifungal activity of the compounds 3a–3j, 15 clinical strains of different species of yeasts from Candida species, namely C. albicans, C. dubliniensis C. famata, C. inconspicua, C. krusei, C. tropicalis, C. glabrata, C. lambica, C. kefyr, C. lusitaniae, C. parapsilosis, C. guilliermondii, C. lusitaniae, C. pulcherrima and C. sake were also used. These fungi were isolated by the author (from Department of Pharmaceutical Microbiology of Medical University in Lublin, Poland) from different clinical materials, e.g., from upper respiratory tract of hospitalized patients including cancer patients (i.e., with non-small cell lung cancer or hematological malignancies). Some patients were after pre-operative or post-operative chemotherapy (treated with etoposide or cis-platin given in doses according to the standard procedures), patients with chronic hepatitis C (undergoing peginterferon and ribavirin therapy or without antiviral therapy), patients with diabetes, elderly people, aged of 65 years old or older, staying in close population, such as a care centre and people staying outside the home care. The Ethical Committee of the Medical University of Lublin approved the study protocol (No. KE-0254/75/2011). The isolates were identified by standard diagnostic methods—biochemical microtest, e.g., API 20C AUX, ID 32C, API Candida (bioMérieux) on the basis of assimilation of various substrates. All the used microbial cultures were first subcultured on nutrient agar or Sabouraud agar for bacteria and fungi, respectively. The RPMI 1640 with MOPS (for fungi) were inoculated with the suspensions of fungal species. Microbial suspensions were prepared in sterile saline (0.85% NaCl) with an optical density of 0.5 McFarland standard scale (Wiegand et al. [2008]). Samples containing examined compounds were dissolved in dimethyl sulfoxide (DMSO). Furthermore, fungal suspensions were put onto Petri dishes with solid media containing 2 mg/ml of the tested compounds followed incubation under appropriate conditions. The inhibition of microbial growth was judged by comparison with a control culture prepared without any sample tested. Nystatin (Sigma) was used as a reference antifungal compound. Subsequently MIC minimal inhibitory concentration (MIC) of the compounds was examined by the microdilution broth method, using their two-fold dilutions in RPMI 1640 broth with MOPS prepared in 96-well polystyrene plates. Final concentrations of the compounds ranged from 1000 to 0.0038 µg/ml. Microbial suspensions were prepared in sterile saline with an optical density of 0.5 McFarland standard. Next fungal suspension was added per each well containing broth and various concentrations of the examined compounds. After incubation, the MIC was assessed spectrophotometric as the lowest concentration of the samples showing complete fungal growth inhibition. Appropriate DMSO, growth and sterile controls were carried out. The medium with no tested substances was used as a control (Wiegand et al. [2008]). The minimal fungicidal concentration (MFC) are defined as the lowest concentration of the compounds that is required to kill a particular fungal species. MFC was determined by removing the culture using for MIC determinations from each well and spotting onto appropriate agar medium. The plates were incubated. The lowest compounds concentration with no visible growth observed was assessed as a fungicidal concentration. All the experiments were repeated three times and representative data are presented.
(§2) The MFC/MIC ratios were calculated in order to determine fungicidal (MFC/MIC ≤ 4) or fungistatic (MFC/MIC > 4) effect of the tested compounds (O’Donnell et al. [2010]).

C. lusitaniae = test: Broth microdilution MIC/MFC, clinical isolate; type: cell-based; conditions: Clavispora lusitaniae, C. lusitaniae clinical strain; for MFC: read-out: MFC; for MIC: read-out: MIC
Text: as §1, §2

C. albicans = test: Broth microdilution MIC/MFC, clinical isolate; type: cell-based; conditions: Candida albicans, C. albicans clinical strain; for MFC: read-out: MFC; for MIC: read-out: MIC
Text: as §1, §2

C. guilliermondii = test: Broth microdilution MIC/MFC, clinical isolate; type: cell-based; conditions: Meyerozyma guilliermondii, C. guilliermondii clinical strain; for MFC: read-out: MFC; for MIC: read-out: MIC
Text: as §1, §2

C. inconspicua = test: Broth microdilution MIC/MFC, clinical isolate; type: cell-based; conditions: Pichia inconspicua, C. inconspicua clinical strain; for MFC: read-out: MFC; for MIC: read-out: MIC
Text: as §1, §2

C. parapsilosis = test: Broth microdilution MIC/MFC, clinical isolate; type: cell-based; conditions: Lodderomyces parapsilosis, C. parapsilosis clinical strain; for MFC: read-out: MFC; for MIC: read-out: MIC
Text: as §1, §2

C. dubliniensis = test: Broth microdilution MIC/MFC, clinical isolate; type: cell-based; conditions: Candida dubliniensis, C. dubliniensis clinical strain; for MFC: read-out: MFC; for MIC: read-out: MIC
Text: as §1, §2

C. tropicalis = test: Broth microdilution MIC/MFC, clinical isolate; type: cell-based; conditions: Candida tropicalis, C. tropicalis clinical strain; for MFC: read-out: MFC; for MIC: read-out: MIC
Text: as §1, §2

C. famata = test: Broth microdilution MIC/MFC, clinical isolate; type: cell-based; conditions: Debaryomyces hansenii, C. famata clinical strain; for MFC: read-out: MFC; for MIC: read-out: MIC
Text: as §1, §2

C. krusei = test: Broth microdilution MIC/MFC, clinical isolate; type: cell-based; conditions: Pichia kudriavzevii, C. krusei clinical strain; for MFC: read-out: MFC; for MIC: read-out: MIC
Text: as §1, §2

C. glabrata = test: Broth microdilution MIC/MFC, clinical isolate; type: cell-based; conditions: Nakaseomyces glabratus, C. glabrata clinical strain; for MFC: read-out: MFC; for MIC: read-out: MIC
Text: as §1, §2

C. kefyr = test: Broth microdilution MIC/MFC, clinical isolate; type: cell-based; conditions: Kluyveromyces marxianus, C. kefyr clinical strain; for MFC: read-out: MFC; for MIC: read-out: MIC
Text: as §1, §2

C. pulcherrima = test: Broth microdilution MIC/MFC, clinical isolate; type: cell-based; conditions: C. pulcherrima clinical strain
Text: as §1, §2

C. lambica = test: Broth microdilution MIC/MFC, clinical isolate; type: cell-based; conditions: Pichia fermentans, C. lambica clinical strain
Text: as §1, §2

[2] = read-out: Proliferation of Toxoplasma gondii RH strain ± SD

| MIC (C. sake) [µg/mL] | MIC (C. lusitaniae) [µg/mL] | MIC (C. albicans) [µg/mL] | MIC (C. guilliermondii) [µg/mL] | MIC (C. inconspicua) [µg/mL] | MIC (C. parapsilosis) [µg/mL] | MIC (C. dubliniensis) [µg/mL] | MIC (C. tropicalis) [µg/mL] | SMILES | activity at 0.98 µg/mL [1, 2] [%] | activity at 1.95 µg/mL [1, 2] [%] | activity at 3.91 µg/mL [1, 2] [%] | MFC (C. sake) [µg/mL] | MFC (C. lusitaniae) [µg/mL] | MFC (C. albicans) [µg/mL] | MFC (C. guilliermondii) [µg/mL] | MFC (C. inconspicua) [µg/mL] | MFC (C. parapsilosis) [µg/mL] | MFC (C. dubliniensis) [µg/mL] | MFC (C. tropicalis) [µg/mL] | MFC (C. famata) [µg/mL] | also measured |
| --- | --- | --- | --- | --- | --- | --- | --- | --- | --- | --- | --- | --- | --- | --- | --- | --- | --- | --- | --- | --- | --- |
| 3.91 (≈ 15 µM) | 0.98 (≈ 3.75 µM) | 0.98 (≈ 3.75 µM) | 1.95 (≈ 7.46 µM) | 1.95 (≈ 7.46 µM) | 3.91 (≈ 15 µM) | 1.95 (≈ 7.46 µM) | 0.98 (≈ 3.75 µM) | Fc1ccc(-c2csc(N/N=C/C3CC3)n2)cc1 [Compound 3a, (E)-2-(2-(Cyclopropylmethylene)hydrazinyl)-4-(4-fluorophenyl)thiazole] | 95.4 ± 2.41 | 97.9 ± 7.49 | 96.16 ± 0.61 | 15.6 (≈ 59.8 µM) | 3.91 (≈ 15 µM) | 3.91 (≈ 15 µM) | 31.2 (≈ 120 µM) | 3.91 (≈ 15 µM) | 7.81 (≈ 29.9 µM) | 3.91 (≈ 15 µM) | 1.95 (≈ 7.46 µM) | 62.5 (≈ 239 µM) | IC50 ([1]; read-out: IC50 anti-Tg): 18.1 µg/mL (≈ 69.2 µM); activity at 7.81 µg/mL [1, 2]: 84.89 ± 0.78%; activity at 15.63 µg/mL [1, 2]: 49.2 ± 3.59%; activity at 20 µg/mL [1, 2]: 45.6 ± 5.64%; activity at 25 µg/mL [1, 2]: 42.2 ± 0.91%; activity at 31.25 µg/mL [1, 2]: 28.2 ± 5.7%; MIC (C. famata): 7.81 µg/mL (≈ 29.9 µM); MFC (C. krusei): 1.95 µg/mL (≈ 7.46 µM); MIC (C. krusei): 0.98 µg/mL (≈ 3.75 µM) |
| 0.06 (≈ 0.186 µM) | 0.98 (≈ 3.04 µM) | 0.12 (≈ 0.372 µM) | 0.12 (≈ 0.372 µM) | 0.24 (≈ 0.745 µM) | 0.12 (≈ 0.372 µM) | 0.06 (≈ 0.186 µM) | 0.06 (≈ 0.186 µM) | Brc1ccc(-c2csc(N/N=C/C3CC3)n2)cc1 [Compound 3b, (E)-4-(4-Bromophenyl)-2-(2-(cyclopropylmethylene)hydrazinyl)thiazole] | 85.8 ± 10.6 | 99.3 ± 6.08 | 107 ± 10.2 | 0.24 (≈ 0.745 µM) | 1.95 (≈ 6.05 µM) | 1.95 (≈ 6.05 µM) | 0.48 (≈ 1.49 µM) | 3.91 (≈ 12.1 µM) | 0.12 (≈ 0.372 µM) | 0.06 (≈ 0.186 µM) | 0.12 (≈ 0.372 µM) | 0.98 (≈ 3.04 µM) | activity at 7.81 µg/mL [1, 2]: 111 ± 10.1%; MFC (C. glabrata): > 1000 µg/mL; MIC (C. glabrata): 62.5 µg/mL (≈ 194 µM); MIC (C. famata): 0.12 µg/mL (≈ 0.372 µM); MFC (C. kefyr): > 1000 µg/mL; MIC (C. kefyr): 15.6 µg/mL (≈ 48.5 µM); MFC (C. krusei): 0.48 µg/mL (≈ 1.49 µM); MIC (C. krusei): 0.24 µg/mL (≈ 0.745 µM) |
| 0.12 (≈ 0.432 µM) | 0.12 (≈ 0.432 µM) | 0.06 (≈ 0.216 µM) | 0.24 (≈ 0.864 µM) | 0.98 (≈ 3.53 µM) | 0.03 (≈ 0.108 µM) | 0.03 (≈ 0.108 µM) | 0.12 (≈ 0.432 µM) | Clc1ccc(-c2csc(N/N=C/C3CC3)n2)cc1 [Compound 3c, (E)-4-(4-Chlorophenyl)-2-(2-(cyclopropylmethylene)hydrazinyl)thiazole] | 106.78 ± 0.02 | 108 ± 4.34 | 114 ± 6.65 | 0.98 (≈ 3.53 µM) | 0.12 (≈ 0.432 µM) | 0.98 (≈ 3.53 µM) | 0.98 (≈ 3.53 µM) | 3.91 (≈ 14.1 µM) | 0.12 (≈ 0.432 µM) | 0.06 (≈ 0.216 µM) | 0.12 (≈ 0.432 µM) | 0.98 (≈ 3.53 µM) | MFC (C. pulcherrima; read-out: MFC): > 1000 µg/mL; MIC (C. pulcherrima; read-out: MIC): 125 µg/mL (≈ 450 µM); MFC (C. glabrata): > 1000 µg/mL; MIC (C. glabrata): 500 µg/mL (≈ 1800 µM); MFC (C. lambica; read-out: MFC): > 1000 µg/mL; MIC (C. lambica; read-out: MIC): 125 µg/mL (≈ 450 µM); MIC (C. famata): 0.12 µg/mL (≈ 0.432 µM); MFC (C. kefyr): > 1000 µg/mL; MIC (C. kefyr): 31.2 µg/mL (≈ 112 µM); MFC (C. krusei): 0.48 µg/mL (≈ 1.73 µM); MIC (C. krusei): 0.12 µg/mL (≈ 0.432 µM) |
